From patent US11325916B1, “Spiropyrrolidine derived antiviral agents” (priority 2021, dated 2022)
Read-outs that look alike come from different tables or passages of the source.

How the values were obtained:
SARS-CoV-2 3CL-protease = SARS-CoV-2 3CL-protease (Severe acute respiratory syndrome coronavirus 2 (2019-nCoV) (SARS-CoV-2), UniProt P0DTD1); test: SARS-CoV-2 3C-Like (3CL) Protease Fluorescence Assay (FRET); assay type: biochemical
[1] = system: 229E human corona virus (hCoV); test: 229E Live Virus Assay (MRC-5 cells, CPE, ATPlite readout); assay type: cell-based, hCoV-229E; conditions: Human coronavirus 229E, MRC5, 144 h, read-out: 229E EC50
[2] = MRC-5 cells, hCoV-229E MOI 0.05, 6 days at 34° C., ATPlite, duplicate, ranges defined in μM

## CC(C)C[C@@H](C(=O)N1C[C@]2(C[C@H]1C#N)C(=O)Nc1ccccc12)N(C)C(=O)[C@H](Cc1ccc(F)cc1)NC(=O)OCc1ccccc1 [Example 1]
SARS-CoV-2 3CL-protease
  IC50: < 100 nM
[1]
  EC50: < 0.1 µM

## Cc1cc(C(=O)N[C@@H](Cc2ccc(F)cc2)C(=O)N(C)[C@@H](CC(C)(C)C)C(=O)N2C[C@]3(C[C@H]2C#N)C(=O)Nc2ccccc23)no1 [Example 39]
SARS-CoV-2 3CL-protease
  IC50: < 100 nM
[1]
  EC50: < 0.1 µM

## CC(C)OC(=O)N[C@@H](CC1CC1)C(=O)N(C)[C@@H](CC(C)(C)C)C(=O)N1C[C@]2(C[C@H]1C#N)C(=O)Nc1ccccc12 [Example 121]
SARS-CoV-2 3CL-protease
  IC50: < 100 nM
[1]
  EC50: < 0.1 µM

## CC(C)C[C@@H](C(=O)N1C[C@]2(C[C@H]1C#N)C(=O)Nc1ccccc12)N(C)C(=O)[C@@H](NC(=O)C(F)(F)F)C1CCCCC1 [Example 21]
SARS-CoV-2 3CL-protease
  IC50: < 100 nM
[1]
  EC50: < 0.1 µM

## CC(C)C(=O)N[C@@H](CC1CC1)C(=O)N(C)[C@@H](CC(C)(C)C)C(=O)N1C[C@]2(C[C@H]1C#N)C(=O)Nc1ccccc12 [Example 80]
SARS-CoV-2 3CL-protease
  IC50: < 100 nM
[1]
  EC50: < 0.1 µM

## CC(C)(C)C[C@H](NC(=O)[C@H](Cc1ccc(F)cc1)NC(=O)OCc1ccccc1)C(=O)N1C[C@]2(C[C@H]1C#N)C(=O)Nc1ccccc12 [Example 62]
SARS-CoV-2 3CL-protease
  IC50: < 100 nM
[1]
  EC50: > 1 µM

## CN(C(=O)[C@H](CC1CC1)NC(=O)NC1CC1)[C@@H](CC(C)(C)C)C(=O)N1C[C@]2(C[C@H]1C#N)C(=O)Nc1ccccc12 [Example 85]
SARS-CoV-2 3CL-protease
  IC50: < 100 nM
[1]
  EC50: < 0.1 µM

## CN(C(=O)[C@H](CC1CC1)NC(=O)C(F)(F)F)[C@@H](CC(C)(C)C)C(=O)N1C[C@]2(C[C@H]1C#N)C(=O)Nc1ccccc12 [Example 75]
SARS-CoV-2 3CL-protease
  IC50: < 100 nM
[1]
  EC50: < 0.1 µM

## CC(C)[C@@H](NC(=O)OC(C)(C)C)C(=O)N(C)[C@@H](Cc1ccccc1)C(=O)N1C[C@]2(C[C@H]1C#N)C(=O)Nc1ccccc12 [Example 48]
SARS-CoV-2 3CL-protease
  IC50: < 100 nM
[1]
  EC50: < 0.1 µM

## CC(C)(C)C(N)C(=O)N1CCC[C@H]1C(=O)N1C[C@]2(C[C@H]1C#N)C(=O)Nc1ccccc12 (stereo partly shown) [Example 56]
SARS-CoV-2 3CL-protease
  IC50: > 1000 nM
[1]; [2]
  EC50: > 1 µM

## CC(C)(C)C(NS(=O)(=O)c1ccccc1)C(=O)N1CCC[C@H]1C(=O)N1C[C@]2(C[C@H]1C#N)C(=O)Nc1ccccc12 (stereo partly shown) [Example 57]
SARS-CoV-2 3CL-protease
  IC50: > 1000 nM
[1]
  EC50: > 1 µM

## Cc1cc(C(=O)N[C@H](C(=O)N(C)[C@@H](CC(C)C)C(=O)N2C[C@]3(C[C@H]2C#N)C(=O)Nc2ccccc23)C2CCCCC2)no1 [Example 40]
SARS-CoV-2 3CL-protease
  IC50: < 100 nM
[1]
  EC50: 0.1 to 1 µM

## CN(C(=O)[C@H](CC1CC1)NS(C)(=O)=O)[C@@H](CC(C)(C)C)C(=O)N1C[C@]2(C[C@H]1C#N)C(=O)Nc1ccccc12 [Example 81]
SARS-CoV-2 3CL-protease
  IC50: < 100 nM
[1]
  EC50: < 0.1 µM

## CC(=O)N(C)[C@@H](CC(C)(C)C)C(=O)N(C)[C@@H](CC(C)C)C(=O)N1C[C@]2(C[C@H]1C#N)C(=O)Nc1ccccc12 [Example 44]
SARS-CoV-2 3CL-protease
  IC50: < 100 nM
[1]
  EC50: 0.1 to 1 µM

## CC(C)C[C@@H](C(=O)N1C[C@]2(C[C@H]1C#N)C(=O)Nc1ccccc12)N1CC[C@H](NC(=O)C(F)(F)F)C1=O [Example 50]
SARS-CoV-2 3CL-protease
  IC50: 100 to 1000 nM
[1]
  EC50: > 1 µM

## CC(C)C[C@@H](C(=O)N1C[C@]2(C[C@H]1C#N)C(=O)Nc1ccccc12)N(C)C(=O)[C@H](CC1CCC1)NC(=O)C(C)(C)C [Example 42]
SARS-CoV-2 3CL-protease
  IC50: < 100 nM
[1]
  EC50: < 0.1 µM

## CC(C)C[C@@H](C(=O)N1C[C@]2(C[C@H]1C#N)C(=O)Nc1ccccc12)N(C)C(=O)[C@H](CC1CC1)NC(=O)OCc1ccccc1 [Example 14]
SARS-CoV-2 3CL-protease
  IC50: < 100 nM
[1]
  EC50: < 0.1 µM

## CC(C)(C)C(NC(=O)c1ccc(F)cc1)C(=O)N1CCC[C@H]1C(=O)N1C[C@]2(C[C@H]1C#N)C(=O)Nc1ccccc12 (stereo partly shown) [Example 58]
SARS-CoV-2 3CL-protease
  IC50: > 1000 nM
[1]
  EC50: > 1 µM

## CC(C)[C@H](NC(=O)c1ccc(F)c(F)c1)C(=O)N(C)[C@@H](CC(C)(C)C)C(=O)N1C[C@]2(C[C@H]1C#N)C(=O)Nc1ccccc12 [Example 107]
SARS-CoV-2 3CL-protease
  IC50: < 100 nM
[1]
  EC50: 0.1 to 1 µM

## CC(=O)N[C@H](C(=O)N[C@@H](CC(C)(C)C)C(=O)N1C[C@]2(C[C@H]1C#N)C(=O)Nc1ccccc12)C(C)C [Example 88]
SARS-CoV-2 3CL-protease
  IC50: 100 to 1000 nM
[1]
  EC50: 0.1 to 1 µM

## [2H]C([2H])([2H])N(C(=O)[C@H](CC1CC1)NC(=O)C(F)(F)F)[C@@H](CC1CC1)C(=O)N1C[C@]2(C[C@H]1C#N)C(=O)Nc1ccccc12 [Example 134]
SARS-CoV-2 3CL-protease
  IC50: < 100 nM
[1]
  EC50: < 0.1 µM

## CC(C)C[C@@H](C(=O)N1C[C@]2(C[C@H]1C#N)C(=O)Nc1ccccc12)N(C)C(=O)[C@H](CC1CCC1)NC(=O)c1ccc(F)cc1 [Example 35]
SARS-CoV-2 3CL-protease
  IC50: < 100 nM
[1]
  EC50: < 0.1 µM

## CC(C)C[C@@H](C(=O)N1C[C@]2(C[C@H]1C#N)C(=O)Nc1ccccc12)N(C)C(=O)[C@H](CC(C)(C)C)N(C)C(=O)OCc1ccccc1 [Example 32]
SARS-CoV-2 3CL-protease
  IC50: < 100 nM
[1]
  EC50: < 0.1 µM

## CN(C(=O)[C@H](Cc1ccc(F)cc1)N1CCCC1=O)[C@@H](CC(C)(C)C)C(=O)N1C[C@]2(C[C@H]1C#N)C(=O)Nc1ccccc12 [Example 67]
SARS-CoV-2 3CL-protease
  IC50: < 100 nM
[1]
  EC50: < 0.1 µM

## C[C@H](NC(=O)C(F)(F)F)C(=O)N(C)[C@@H](CC(C)(C)C)C(=O)N1C[C@]2(C[C@H]1C#N)C(=O)Nc1ccccc12 [Example 128]
SARS-CoV-2 3CL-protease
  IC50: < 100 nM
[1]
  EC50: < 0.1 µM

## CN(C(=O)[C@H](Cc1ccc(F)cc1)NC(=O)NC1CC1)[C@@H](CC(C)(C)C)C(=O)N1C[C@]2(C[C@H]1C#N)C(=O)Nc1ccccc12 [Example 8]
SARS-CoV-2 3CL-protease
  IC50: < 100 nM
[1]
  EC50: < 0.1 µM

## CN(C(=O)[C@H](CC1CC1)NC(=O)C1CC1)[C@@H](CC(C)(C)C)C(=O)N1C[C@]2(C[C@H]1C#N)C(=O)Nc1ccccc12 [Example 76]
SARS-CoV-2 3CL-protease
  IC50: < 100 nM
[1]
  EC50: < 0.1 µM

## COC(=O)N[C@H](C(=O)N(C)[C@@H](CC(C)C)C(=O)N1C[C@]2(C[C@H]1C#N)C(=O)Nc1ccccc12)C(C)(C)C [Example 13]
SARS-CoV-2 3CL-protease
  IC50: < 100 nM
[1]
  EC50: 0.1 to 1 µM

## CC(C)(C)C[C@H](NC(=O)[C@H](Cc1ccc(F)cc1)NC(=O)C(F)(F)F)C(=O)N1C[C@]2(C[C@H]1C#N)C(=O)Nc1ccccc12 [Example 63]
SARS-CoV-2 3CL-protease
  IC50: < 100 nM
[1]; [2]
  EC50: < 0.1 µM

## CN(C(=O)[C@@H](NCc1cc(F)c(F)cc1F)C(C)(C)C)[C@@H](Cc1ccccc1)C(=O)N1C[C@]2(C[C@H]1C#N)C(=O)Nc1ccccc12 [Example 30]
SARS-CoV-2 3CL-protease
  IC50: < 100 nM
[1]
  EC50: 0.1 to 1 µM

## CN(C(=O)[C@H](Cc1ccc(F)cc1)NC(=O)C1COC1)[C@@H](CC(C)(C)C)C(=O)N1C[C@]2(C[C@H]1C#N)C(=O)Nc1ccccc12 [Example 65]
SARS-CoV-2 3CL-protease
  IC50: < 100 nM
[1]
  EC50: < 0.1 µM

## CN(C(=O)[C@H](Cc1ccc(F)cc1)N1CCOC1=O)[C@@H](CC(C)(C)C)C(=O)N1C[C@]2(C[C@H]1C#N)C(=O)Nc1ccccc12 [Example 52]
SARS-CoV-2 3CL-protease
  IC50: < 100 nM
[1]
  EC50: < 0.1 µM

## CC(C)[C@H](NC(=O)OC(C)(C)C)C(=O)N(C)[C@@H](Cc1ccccc1)C(=O)N1C[C@]2(C[C@H]1C#N)C(=O)Nc1ccccc12 [Example 47]
SARS-CoV-2 3CL-protease
  IC50: < 100 nM
[1]
  EC50: < 0.1 µM

## CC(C)C[C@@H](C(=O)N1C[C@]2(C[C@H]1C#N)C(=O)Nc1ccccc12)N(C)C(=O)[C@@H](NC(=O)OCc1ccccc1)C(C)C [Example 49]
SARS-CoV-2 3CL-protease
  IC50: < 100 nM
[1]
  EC50: < 0.1 µM

## CC(C)C[C@@H](C(=O)N1C[C@]2(C[C@H]1C#N)C(=O)Nc1ccccc12)N(C)C(=O)[C@H](Cc1ccc(F)cc1)NC(=O)c1cnccn1 [Example 18]
SARS-CoV-2 3CL-protease
  IC50: < 100 nM
[1]
  EC50: < 0.1 µM

## CN(C(=O)[C@H](Cc1ccc(F)cc1)NC(=O)C(F)(F)F)[C@@H](CC(C)(C)C)C(=O)N1C[C@]2(C[C@H]1C#N)C(=O)Nc1ccccc12 [Example 6]
SARS-CoV-2 3CL-protease
  IC50: < 100 nM
[1]; [2]
  EC50: < 0.1 µM

## CN(C(=O)[C@H](CC1CC1)NS(=O)(=O)c1ccn(-c2ccc(F)cc2)n1)[C@@H](CC(C)(C)C)C(=O)N1C[C@]2(C[C@H]1C#N)C(=O)Nc1ccccc12 [Example 70]
SARS-CoV-2 3CL-protease
  IC50: < 100 nM
[1]
  EC50: < 0.1 µM

## CN(C(=O)[C@H](Cc1ccc(F)cc1)NC(=O)OCc1ccccc1)[C@@H](CC(C)(C)C)C(=O)N1C[C@]2(C[C@H]1C#N)C(=O)Nc1ccccc12 [Example 5]
SARS-CoV-2 3CL-protease
  IC50: < 100 nM
[1]
  EC50: < 0.1 µM

## [2H]C([2H])([2H])N(C(=O)[C@H](CC1CC1)NC(C)=O)[C@@H](Cc1ccc(F)cc1)C(=O)N1C[C@]2(C[C@H]1C#N)C(=O)Nc1ccccc12 [Example 73]
SARS-CoV-2 3CL-protease
  IC50: < 100 nM
[1]
  EC50: < 0.1 µM

## CC(C)C[C@@H](C(=O)N1C[C@]2(C[C@H]1C#N)C(=O)Nc1ccccc12)N(C)C(=O)[C@H](CC1CCC1)NC(=O)OCc1ccccc1 [Example 24]
SARS-CoV-2 3CL-protease
  IC50: < 100 nM
[1]
  EC50: < 0.1 µM

## CC(C)C[C@@H](C(=O)N1C[C@]2(C[C@H]1C#N)C(=O)Nc1ccccc12)N(C)C(=O)[C@H](CC1CC1)NC(=O)C(F)(F)F [Example 15]
SARS-CoV-2 3CL-protease
  IC50: < 100 nM
[1]
  EC50: < 0.1 µM

## CN(C(=O)[C@H](CC1CC1)NC(=O)c1cn(C2CC2)nn1)[C@@H](CC(C)(C)C)C(=O)N1C[C@]2(C[C@H]1C#N)C(=O)Nc1ccccc12 [Example 124]
SARS-CoV-2 3CL-protease
  IC50: < 100 nM
[1]
  EC50: < 0.1 µM

## CC(C)C[C@@H](C(=O)N1C[C@]2(C[C@H]1C#N)C(=O)Nc1ccccc12)N(C)C(=O)[C@H](CC(C)(C)C)NC(=O)c1ccc(F)cc1 [Example 34]
SARS-CoV-2 3CL-protease
  IC50: < 100 nM
[1]
  EC50: < 0.1 µM

## CN(C(=O)[C@@H](NC(=O)OCc1ccccc1)C(C)(C)C)[C@@H](Cc1ccccc1)C(=O)N1C[C@]2(C[C@H]1C#N)C(=O)Nc1ccccc12 [Example 28]
SARS-CoV-2 3CL-protease
  IC50: < 100 nM
[1]
  EC50: 0.1 to 1 µM
